Common to all, as to assay: NCI-60 cell line screen, 48 h
The test system of test [1] is MDA-MB-231 breast.
Test [2] relates to SNB-75 CNS.
Test [3] concerns SF-539 CNS.
In test [4] the test system is HCT-116 colon.
In test [5] the test system is OVCAR-8 ovarian.
Test [6] relates to RPMI-8226 leukemia.
Test [7] has as its system NCI-H23 lung.
Test [8] relates to U251 CNS.
Test [9] concerns SK-MEL-5 melanoma.
Test [10] has as its system NCI-H460 lung.

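1) Cells in 96-well plates. 2) Compound, 48 h, 5 concentrations. 3) Linear interpolation between surrounding doses. 4) Unreached endpoint = highest concentration. GI50 is the concentration that inhibits growth by half. TGI: concentration producing complete growth inhibition.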 Where only a bound is given, the exact number is not on record here.

In the case of `COc1cc(/C=C2\CCCC3=C2NC(C)=NC3c2cc(OC)c(OC)c(OC)c2)cc(OC)c1OC` (configuration not stated), the GI50 in test [1] is 3.01 µM; in test [2], over 100 µM; in [3], 1.55 µM; in test [4], 0.46 µM; in test [5], 0.372 µM; in test [6], 0.536 µM. The TGI is over 100 µM in [1]; over 100 µM in test [2]; over 100 µM in test [3]; 1.76 µM in test [4]; over 100 µM in test [5]; 4.67 µM in [6].
With `CCN(CC)CC(=O)O[C@]1(CC)C(=O)OCc2c1cc1n(c2=O)Cc2cc3ccccc3nc2-1`, the TGI in test [1] came out at 31.3 µM; in test [7], 0.13 µM; in test [2], 0.677 µM; in [3], 0.17 µM; in test [8], 0.221 µM; in [4] it was 0.352 µM. In addition, the TGI in [9] was found to be 0.171 µM; in test [10] it was 0.129 µM; in [5], 3.65 µM; in test [6], 1.85 µM.
With `NC(N)=N/N=C/c1c(-c2cccc([N+](=O)[O-])c2)nc2n1CCS2`, the TGI in test [1] was 44.5 µM; in [7], 58.9 µM; in [2], 25.1 µM; in [3] it was 43.7 µM; in test [8], 41.7 µM; in test [4] it was over 100 µM. Besides, the TGI in test [9] was 32.5 µM; in test [10] it was 53.5 µM; in test [5], 39.3 µM; in test [6], over 100 µM.
On to `O=C1CCCCC2N(C(c3ccccc3)c3ccccc3)CC[C@@]12c1ccccc1` (mixture of isomers), for which the TGI in test [7], in test [2], in test [3], in test [8], in test [4] and in test [9] was over 10 µM in each case. In addition, the TGI in test [10] is over 10 µM; in test [5], over 10 µM; in [6] it was 9.31 µM.
In the case of `CN(C)CCCN1c2ccccc2Sc2cnccc21`, the TGI in [1], in test [2], in test [3], in test [8], in test [4] and in [9] was over 100 µM each time. Also, the TGI in test [10], in test [5] and in test [6] was over 100 µM throughout.
Regarding `Cc1cc(O)c(C(C)(C)C)cc1Sc1cc(C(C)(C)C)c(O)cc1C`, the GI50 in [1] was 2.16 µM; in [7], 3.49 µM; in test [2], 2.99 µM; in test [3] it was 2.77 µM; in test [8] it was 1.99 µM; in test [9], 1.58 µM. Besides, the GI50 in [10] is 2.89 µM; in test [5], 3.82 µM; in [6], 2.97 µM. Further, the TGI in [1] was 5.06 µM; in test [7], 11.8 µM; in test [2], 14.5 µM; in [3] it was 9 µM; in test [8], 4.22 µM; in test [9], 3.02 µM. Moreover, the TGI in [10] amounted to 7.33 µM; in test [5], 15.4 µM; in [6], 15.8 µM.
As for `Clc1ccccc1/C=C/c1cscn1`, the TGI in [7], in [2], in test [3], in [8], in test [4] and in [10] was over 100 µM in each case. In test [6], this compound displayed a TGI of over 100 µM.
As for `O=C(O)Cc1cc(O)c(CC(=O)O)cc1O`, the TGI in [1], in test [7], in [8], in test [4], in test [9] and in test [10] was over 100 µM in each case. In test [5], this compound yielded a TGI of over 100 µM.
With `CCOC(=O)CN=C1NNS(=O)(=O)c2ccccc21`, the TGI in [1], in test [7], in test [2], in [3], in test [8] and in [4] was over 100 µM in each case. In addition, the TGI in [9], in test [10], in test [5] and in test [6] was over 100 µM each time.
Regarding `COc1ccc(C2C3=C(Nc4ncnn42)c2ccccc2OC3c2ccccc2)cc1` (configuration not stated), the TGI in test [1] is over 100 µM; in [7], over 100 µM; in test [3], over 100 µM; in test [8], over 100 µM; in test [4], over 100 µM; in test [9], 62.7 µM. Also, the TGI in test [10] and in test [5] was over 100 µM each time.
`CCOC(=O)C(O)(NC(=O)c1ccc(F)cc1)C(F)(F)F` (configuration not stated): the TGI in [1], in test [7], in test [2], in test [3], in test [8] and in test [4] was over 100 µM throughout. In addition, the TGI in test [9], in test [5] and in test [6] was over 100 µM throughout.
Consider `Cn1c(=O)c2[nH]c(CCCCC(=O)O)nc2n(C)c1=O`, for which the TGI in [1], in test [7], in [2], in [8], in [4] and in [9] was over 100 µM in each case. The TGI in test [10] and in [5] was over 100 µM in each case.
`N#Cc1c(Cl)c2cc([N+](=O)[O-])ccc2n2c1nc1ccccc12`: the TGI was 0.858 µM in test [1]; 35.8 µM in test [7]; 24.6 µM in [2]; 4.28 µM in [3]; over 100 µM in [8]; over 100 µM in [4]. Further, the TGI in test [9] was 44.4 µM; in [10], 38.5 µM; in [5] it was 10.6 µM; in test [6], over 22.5 µM.
Take `CN(/N=C/c1ccc(OCc2cccc(COc3ccc(C=O)cc3)n2)cc1)c1cnn(-c2ccc(Cl)cc2Cl)c(=O)c1Cl`: the TGI in test [1] was over 100 µM; in [7] it was over 100 µM; in test [2], 39.9 µM; in test [3] it was 46.9 µM; in test [8], over 100 µM; in test [4], over 100 µM. In addition, the TGI in test [9], in [10], in test [5] and in [6] was over 100 µM in each case.
As to `O=C1NN(C2=NNC3(C(=O)N2)c2ccccc2-c2ccccc23)C(c2ccccc2)=N/C1=C/c1ccc(O)cc1`, the GI50 in test [1] was 26.2 µg/mL; in [7], 61.5 µg/mL; in [2] it was 57.4 µg/mL; in test [3] it was 32.7 µg/mL; in test [8] it was 104 µg/mL; in test [4], 103 µg/mL. In addition, the GI50 is 39.2 µg/mL in test [9], 57.6 µg/mL in [10], 65.9 µg/mL in [5] and 70.6 µg/mL in test [6]. For the same compound, the TGI in test [1] is 71.7 µg/mL; in test [7], over 150 µg/mL; in test [2] it was over 150 µg/mL; in test [3] it was 87.5 µg/mL; in test [8], over 150 µg/mL; in [4], over 150 µg/mL. The TGI in [9], in [10], in test [5] and in [6] was over 150 µg/mL throughout.
For `O=S1(=O)N(CCNc2nccc(-c3c(-c4cccc(O)c4)nc4sccn34)n2)CCN1Cc1ccccc1`, the GI50 in [1] is 3.06 µM; in test [7] it was 7.19 µM; in test [2] it was 9.38 µM; in test [3], 7.14 µM; in test [8], 8.21 µM; in [4] it was 5.56 µM. The GI50 in test [9] is 3.04 µM; in [10], 3.45 µM; in [5], 4.88 µM; in test [6] it was 4.41 µM. In addition, the TGI in test [1] is 26.4 µM; in test [7] it was 27.7 µM; in test [2], over 50 µM; in test [3], over 50 µM; in [8], over 50 µM; in test [4], 19.4 µM. Besides, the TGI is 9.79 µM in [9], 17.1 µM in [10], over 50 µM in [5] and 14.3 µM in test [6].
As for `Cc1nc2ccccc2n1C(=O)c1c(F)c(F)c(F)c(F)c1F`, the TGI in test [1] was found to be 32 µM; in [7], 56.2 µM; in test [2] it was 90.1 µM; in test [3], 29.5 µM; in [8], 52.6 µM; in test [4], 21.8 µM. Moreover, the TGI in test [9] came to 26.9 µM; in test [10], 52 µM; in test [5], 40.6 µM; in [6], 38.3 µM.
In the case of `O=c1c2cc(S(=O)(=O)O)ccc2nc(COc2ccc(Oc3ccc(Cl)cc3Cl)cc2)n1-c1ccc(Cl)cc1Oc1c(Cl)cccc1Cl`, the TGI in [7] came to 57.1 µM; in [3], 33.5 µM; in [8] it was 40.5 µM; in test [4], 67.8 µM; in test [9], 32.1 µM; in [10] it was 46.5 µM. The TGI came to 75.1 µM in [5] and 64.7 µM in [6].
In the case of `C=CC1(C)CCC2=C(CCC3C(C)(C(=O)OC)CCCC23C)C1=O` (configuration not stated), the TGI in test [7] was 54.5 µM; in [8], 29 µM; in test [4] it was 31.1 µM; in test [9], 30.3 µM; in [10], 36.5 µM; in [5], over 100 µM. Besides, the TGI in test [6] turned out to be 55.9 µM.
As to `COc1cc(O)c2c(c1)OCC(Cc1ccc(O)cc1)C2=O` (configuration not stated), the TGI in [1], in test [7], in test [2], in test [3], in test [8] and in test [4] was over 100 µM in each case. For the same compound, the TGI in test [9], in test [10], in test [5] and in test [6] was over 100 µM each time.
Take `Cc1ccc2c(c1)C1(C)OC(C=CC1=O)O2` (configuration not stated): the TGI in test [1] came out at 0.745 µM; in [7] it was 2.38 µM; in test [2], 4.35 µM; in test [3], 1.27 µM; in test [8], 0.549 µM; in test [4] it was 0.652 µM. The TGI in test [9] stood at 2.79 µM; in [10] it was 6.03 µM; in [5], 0.803 µM; in test [6], 1.65 µM.

(Values after PubChem BioAssay (NCI).)
